What was measured:
[1] = in water; cited from earlier work
[2] = silver benzoate combined with solvent DMAEMA; FIG. 1
Excerpt: FIG. 9 compares the resin compositions of FIG. 7 (A) with the color profiles of various resin compositions prepared with the silver benzoate/DMAEMA mixture added to the base resin before mixing with the catalyst resin to polymerize and cured by either light-curing or self-curing (B).

SMILES	water solubility [1]	change in color over time [2]
C=C(C)C(=O)OC [methyl methacrylate (MMA), methyl methacrylate]	about 1.6 g in 100 g of water	
O=C([O-])c1ccccc1.[Ag+] [silver benzoate]		become darker over time

Source: patent US10251398B2, “Improving shelf life and color profile of resin compositions with silver nanoparticles” (priority 2013, dated 2019)
